From patent publication US20240246916A1, “7-NITRO-8-HYDROXYQUINOLINE DERIVATIVES, PREPARATION METHOD THEREFORE AND MEDICAL USE THEREOF” (Jiangsu Yahong Meditech Co., Ltd., priority 2021, published 2024)
Values after ≈ are worked out from the molar mass of the structure shown. Like-named read-outs stand apart in the source and are kept apart here.

Assays:
Type in all cases: cell-based
[1] = system: Prostate cancer cell line LNcaP; experiment: Inhibitory activity on cancer cells, CellTiter-Glo viability, LNcaP; details: Homo sapiens, 72 hours treatment
Description: (§1) HUVEC (purchased from Allcells Biological Technology (Shanghai) Co., Ltd.); UM-UC-3 (ATCC); LNCaP (ATCC); RM-1 (purchased from Nanjing Cobioer Biosciences Co., Ltd.) (1) On the first day, the cells were seeded in a 96-well plate, and the previous medium was poured off. 5 mL of DPBS was added to wash the cells, and then removed by a pipette and discarded. Then, 1 mL of trypsin (0.25%) was added, and the plate was placed in a cell culture incubator at 37 °C, 5% CO2 for digestion, and taken out after about 2 to 5 minutes. New corresponding medium was added, and pipetted to resuspend the cells evenly, and the cells were then counted with an automated cell counter. Regarding HUVEC, the medium used was endothelial cell complete medium; regarding UM-UC-3, the medium used was 89 v % EMEM+10 v % fetal bovine serum+1 v % penicillin-streptomycin double anti-body; regarding LNcaP, the medium used was 89 v % RPM11640+10 v % fetal bovine serum+1 v % penicillin-streptomycin double anti-body; and regarding RM1, the medium used was 89 v % DMEM+10 v % fetal bovine serum+1 v % penicillin-streptomycin double anti-body. (2) HUVEC cells were seeded in columns 1 to 11 of a 96-well plate (Corning, Cat. No. 3610) at a density of 2000 cells per well in 100 μL of medium, and the medium free of cell was added to the wells of column 12. The other three types of cells were also seeded, wherein UM-UC-3 and RM-1 cells were seeded at a density of 3000 cells per well, and LNCap cells were seeded at a density of 5000 cells per well. Then, the plate was placed in an incubator at 37° C., 5% CO2 for 24 hours. (3) On the second day, the compounds of the present invention and the reference drug nitroxoline (obtained according to the preparation method disclosed in the prior art) were diluted in gradient (2.5 folds, started at 100 μmol) to obtain 8 dose points (there were a total of 8 columns of wells; the first column of wells had the highest concentration, the concentration decreased in turn, and the last column of wells had the lowest concentration). 10 μL of the compound diluted in gradient was added to the 100 μL of cells in column 1 to column 10 with an 8-channel pipette. 10 μL of the corresponding medium containing 0.33 v % DMSO was added to column 11 and column 12. The plate was incubated in an incubator at 37° C., 5% CO2 for 72 hours (note: column 11 was used as MAX well with cells and no compounds; and column 12 was used as MIN well with no cells and no compounds). (4) After treating with the compounds of the present invention for 72 hours, the cell viability detection reagents in the above CellTiter-Glo® assay kit were added to the 96-well plate at 50 μL per well according to the instructions. The plate was shaken on a shaker in the dark for 5 to 10 minutes, and then the cell activity was determined by a multifunctional microplate reader. Finally, the growth inhibition of the compounds of the present invention on the cells was plotted by XLFIT 5.3 software, and the IC50 values of the compounds of the present invention were calculated.

[2] = system: Escherichia coli (carbapenem-resistant clinical isolate; ATCC25922); experiment: MIC by micro broth dilution (CLSI), Escherichia coli; details: Escherichia coli
Source text: (§2) The test bacteria were one strain of clinically isolated carbapenem-resistant Escherichia coli, two strains of carbapenem-resistant Acinetobacter baumannii, two strains of methicillin-resistant Staphylococcus aureus, two strains of sensitive Staphylococcus aureus, and 7 strains of Klebsiella pneumoniae. Duplicate strains isolated from the same patient were eliminated. There were also […] quality control strains Escherichia coli ATCC25922, Acinetobacter baumannii ATCC19606, Staphylococcus aureus ATCC29213, Klebsiella pneumoniae ATCC BAA-1705, ATCC 43816, ATCC BAA-2472, ATCC-BAA-1898, ATCC-BAA-1899, NCTC 13440 and ATCC-BAA-2470. There were 24 strains in total.
(§3) According to the recommendations of relevant documents of the American Clinical and Laboratory Standards Institute (CLSI), the micro broth dilution method was used to determine the MIC of the compounds of the present invention against clinically isolated strains. • 3.1 Formulation of antibacterial drug: All the compounds of the present invention were dissolved in DMSO. The drug concentration range was 128 mg/L to 0.06 mg/L. • 3.2 Culture medium: The drug susceptibility test used cation adjusted Mueller-Hinton broth (CAMHB). • 3.3 Amount of inoculum: The test bacteria cultured overnight were adjusted to 0.5 McFarland turbidity by the direct colony suspension method, and diluted 100 folds, the final inoculum amount was 10^5 CFU/mL. • 3.4 Culture conditions: The test bacteria were cultured at 35±2° C. for 20 hours in air.
(§4) The drug susceptibility test results were interpretated by reference to CLSI 2019 M100 29th edition criteria.
(§5) The quality control strains of the drug susceptibility test were Escherichia coli ATCC 25922, Acinetobacter baumannii ATCC 19606, Staphylococcus aureus ATCC 29213, Klebsiella pneumoniae ATCC BAA-1705, ATCC 43816, ATCC BAA-2472, ATCC-BAA-1898, ATCC-BAA-1899, NCTC 13440 and ATCC-BAA-2470.
(§6) The results of drug susceptibility test were statistically analyzed by WHONET software (version 5.6).

[3] = system: Staphylococcus aureus (methicillin-resistant and sensitive clinical isolates; ATCC29213); experiment: MIC by micro broth dilution (CLSI), Staphylococcus aureus
Source text: as §2, §3, §4, §5, §6

[4] = system: Endothelial cell line HUVEC; experiment: Inhibitory activity on cells, CellTiter-Glo viability, HUVEC; details: Homo sapiens, 72 hours treatment
Description: as §1

[5] = system: Bladder cancer cell line UM-UC-3; experiment: Inhibitory activity on cancer cells, CellTiter-Glo viability, UM-UC-3; details: Homo sapiens, UMUC3, 72 hours treatment
Description: as §1

[6] = system: Acinetobacter baumannii (carbapenem-resistant clinical isolates; ATCC19606); experiment: MIC by micro broth dilution (CLSI), Acinetobacter baumannii; details: Acinetobacter baumannii; for MIC50 / MIC90: ATCC19606
Source text: as §2, §3, §4, §5, §6

[7] = ATCC25922, Clinical strain, read-out: MIC50
[8] = ATCC25922, Clinical strain, read-out: MIC90
[9] = Standard strain ATCC25922, read-out: MIC
[10] = Clinical strain, read-out: MIC50
[11] = Clinical strain, read-out: MIC90
[12] = Standard strain ATCC29213, read-out: MIC
[13] = Standard strain ATCC19606, read-out: MIC

Row | Structure (SMILES) | IC50 [1] [µM] | MIC50 [2, 7] [mg/L] | MIC90 [2, 8] [mg/L] | MIC [2, 9] [mg/L] | MIC50 [3, 10] [mg/L] | MIC90 [3, 11] [mg/L] | MIC [3, 12] [mg/L] | IC50 [4] [µM] | IC50 [5] [µM] | MIC50 [6, 10] [mg/L] | MIC90 [6, 11] [mg/L] | MIC [6, 13] [mg/L] | other results
1 | CN(C)c1ccnc2c(O)c([N+](=O)[O-])ccc12 [Example 17, 4-(Dimethylamino)-7-nitroquinolin-8-ol] | 23.6 | 64 (≈ 274 µM) | 64 (≈ 274 µM) | 128 (≈ 549 µM) | 128 (≈ 549 µM) | 128 (≈ 549 µM) | 128 (≈ 549 µM) | 27.4 | 16.9 | 128 (≈ 549 µM) | 128 (≈ 549 µM) | 128 (≈ 549 µM) | –
2 | O=[N+]([O-])c1ccc2c(N3CCCC3)ccnc2c1O [Example 13, 7-Nitro-4-(pyrrolidin-1-yl)quinolin-8-ol] | 35.4 | > 128 | > 128 | > 128 | > 128 | > 128 | > 128 | > 50 | 38 | > 128 | > 128 | > 128 | –
3 | CN1CCN(c2ccnc3c(O)c([N+](=O)[O-])ccc23)CC1 [Example 18, 4-(4-Methylpiperazinyl)-7-nitroquinolin-8-ol] | 21.2 | 128 (≈ 444 µM) | 128 (≈ 444 µM) | 128 (≈ 444 µM) | 128 (≈ 444 µM) | 128 (≈ 444 µM) | 128 (≈ 444 µM) | 64.4 | 13.2 | 128 (≈ 444 µM) | 128 (≈ 444 µM) | 128 (≈ 444 µM) | –
4 | O=[N+]([O-])c1ccc2c(NC3COC3)ccnc2c1O [Example 19, 7-Nitro-4-(3-oxetanylamino)quinolin-8-ol] | > 100 | – | – | – | – | – | – | > 100 | > 100 | – | – | – | –
5 | CNc1c([N+](=O)[O-])c(O)c2ncccc2c1Cl [Example 7, 5-Chloro-6-(methylamino)-7-nitroquinolin-8-ol] | – | 64 (≈ 252 µM) | 128 (≈ 505 µM) | 64 (≈ 252 µM) | 8 (≈ 31.5 µM) | 16 (≈ 63.1 µM) | 16 (≈ 63.1 µM) | – | – | 32 (≈ 126 µM) | 64 (≈ 252 µM) | 64 (≈ 252 µM) | –
6 | O=[N+]([O-])c1ccc2cc(CN3CCCCC3)cnc2c1O [Example 95, 7-nitro-3-(piperidin-1-ylmethyl)quinolin-8-ol] | – | 64 (≈ 223 µM) | 64 (≈ 223 µM) | 64 (≈ 223 µM) | 64 (≈ 223 µM) | 64 (≈ 223 µM) | 64 (≈ 223 µM) | – | – | 64 (≈ 223 µM) | 64 (≈ 223 µM) | 32 (≈ 111 µM) | –
7 | C#Cc1ccnc2c(O)c([N+](=O)[O-])ccc12 [Example 80, 4-ethynyl-7-nitroquinolin-8-ol] | – | > 128 | > 128 | > 128 | 128 (≈ 598 µM) | 128 (≈ 598 µM) | 128 (≈ 598 µM) | – | – | > 128 | > 128 | > 128 | –
8 | [2H]c1cc2cccnc2c(O)c1[N+](=O)[O-] [Example 117, 7-nitroquinolin-6-d-8-ol] | – | 8 (≈ 41.8 µM) | 16 (≈ 83.7 µM) | 8 (≈ 41.8 µM) | 4 (≈ 20.9 µM) | 8 (≈ 41.8 µM) | 4 (≈ 20.9 µM) | – | – | 4 (≈ 20.9 µM) | 4 (≈ 20.9 µM) | 4 (≈ 20.9 µM) | –
9 | O=[N+]([O-])c1c(F)cc2cccnc2c1O [Example 122, 6-fluoro-7-nitroquinolin-8-ol] | – | – | – | – | – | – | – | – | – | – | – | – | MIC50 ([2]; clinical strains, micro broth dilution, CAMHB, 35±2° C., 20 hours, read-out: MIC50 Escherichia coli Clinical strain): 64 mg/L (≈ 307 µM); MIC90 ([2]; clinical strains, micro broth dilution, CAMHB, 35±2° C., 20 hours, read-out: MIC90 Escherichia coli Clinical strain): 64 mg/L (≈ 307 µM); MIC ([2]; standard strain ATCC25922, micro broth dilution, CAMHB, 35±2° C., 20 hours, read-out: MIC Escherichia coli Standard strain ATCC25922): 64 mg/L (≈ 307 µM); MIC50 ([3]; clinical strains, micro broth dilution, CAMHB, 35±2° C., 20 hours, read-out: MIC50 Staphylococcus aureus Clinical strain): 64 mg/L (≈ 307 µM); MIC90 ([3]; clinical strains, micro broth dilution, CAMHB, 35±2° C., 20 hours, read-out: MIC90 Staphylococcus aureus Clinical strain): 64 mg/L (≈ 307 µM); MIC ([3]; standard strain ATCC29213, micro broth dilution, CAMHB, 35±2° C., 20 hours, read-out: MIC Staphylococcus aureus Standard strain ATCC29213): 128 mg/L (≈ 615 µM); MIC50 ([6]; clinical strains, micro broth dilution, CAMHB, 35±2° C., 20 hours, read-out: MIC50 Acinetobacter baumannii Clinical strain): 64 mg/L (≈ 307 µM); MIC90 ([6]; clinical strains, micro broth dilution, CAMHB, 35±2° C., 20 hours, read-out: MIC90 Acinetobacter baumannii Clinical strain): 64 mg/L (≈ 307 µM); MIC ([6]; standard strain ATCC19606, micro broth dilution, CAMHB, 35±2° C., 20 hours, read-out: MIC Acinetobacter baumannii Standard strain ATCC19606): 64 mg/L (≈ 307 µM)
10 | O=[N+]([O-])c1c(Br)c(Cl)c2cccnc2c1O [Example 114, 6-bromo-5-chloro-7-nitroquinolin-8-ol] | – | 64 (≈ 211 µM) | 64 (≈ 211 µM) | 16 (≈ 52.7 µM) | 2 (≈ 6.59 µM) | 2 (≈ 6.59 µM) | 2 (≈ 6.59 µM) | – | – | 4 (≈ 13.2 µM) | 8 (≈ 26.4 µM) | 8 (≈ 26.4 µM) | –
11 | CCN(CC)Cc1cc([N+](=O)[O-])c(O)c2ncccc12 [Example 94, 5-((diethylamino)methyl)-7-nitroquinolin-8-ol] | – | 128 (≈ 465 µM) | 128 (≈ 465 µM) | 64 (≈ 232 µM) | > 128 | > 128 | > 128 | – | – | 64 (≈ 232 µM) | > 128 | 128 (≈ 465 µM) | –
12 | O=[N+]([O-])c1cc(CN2CCCC2)c2cccnc2c1O [Example 93, 7-nitro-5-(pyrrolidin-1-ylmethyl)quinolin-8-ol acetate] | – | > 128 | > 128 | > 128 | > 128 | > 128 | > 128 | – | – | > 128 | > 128 | > 128 | –
13 | O=[N+]([O-])c1cc(Cl)c2c(N3CCCC(F)(F)C3)ccnc2c1O [Example 118, 5-chloro-4-(3,3-difluoropiperidin-1-yl)-7-nitroquinolin-8-ol] | – | > 128 | > 128 | > 128 | 8 (≈ 23.3 µM) | 128 (≈ 372 µM) | 128 (≈ 372 µM) | – | – | 128 (≈ 372 µM) | > 128 | > 128 | –
